This is an account of results in US20130024954A1, “Human Age-Related Neurodegenerative Nematode Model and Methods” (priority 2011, published 2013).

One assay deals with neurons VC4 and VC5. As to the kind of experiment: Degeneration of VC4 and VC5 neurons in single-copy apl-1/huAPP695 overexpression worms treated with drugs (Example 1). The following applies: for APP-induced degeneration of VC4 and VC5 (in words): Example 1, FIG. 19, Table 3; for % degen / Day 1 (degenerated of counted) / Day 3 (degenerated of counted) / Day 5 (degenerated of counted): Dimebon. The assay is classed as in vivo, C. elegans. The text has this: Many transgenic strains can be easily obtained from a public consortium (CGC), including those with specific neurons fluorescently labeled in a variety of colors. If not publicly available, these strains can be easily constructed using a PCR fusion approach. Final PCR products contain the GFP gene driven by a specific promoter-of-interest and are then microinjected into the gonad of adult wildtype animals. C. elegans have the ability to form a stable, functional extra-chromosomal array with injected PCR products. Therefore, they express injected DNA. Fluorescent worms are then crossed to the single-copy overexpression worms to generate overexpression worms with different identifiable sets of neurons labeled.

Another assay concerns VC4 and VC5 neurons. Put plainly: Quantification of percent neurodegeneration of VC4&5 neurons with drug treatment (Example 2). The assay is classed as in vivo, C. elegans. Conditions: for neurodegeneration induced by APP or apl-1 (in words): 50 μM from L4-larval stage onward, FIG. 25A; for degeneration with gain-of-function mutation in egl-1 (in words): SC_APP and SC_apl-1 strains with egl-1 gain-of-function mutation; for degeneration of VC4&5, SC_APPC59 strain (in words): SC_APPC59 strain (intracellular portion of APP); for degeneration of VC4&5, SC_APPC59 strain (in words) / degeneration of VC4&5, SC_APPN636 strain (in words): FIG. 31; for degeneration of VC4&5, SC_APPN636 strain (in words): SC_APPN636 strain (extracellular and transmembrane portion of APP); for degeneration in egl-1 (null) mutant background (in words): egl-1 (null) background, FIG. 25C. On the procedure:
All analyses were completed with the experimenter blind to genotype and drug treatment. Age-synchronized animals were immobilized on 2% agar pads containing 0.7 mM sodium azide. Neurons that had broken/missing axonal projections, dimly-lit somas with missing projections or absent GFP labeling in the appropriate neuronal location were classified as degenerating. Serotonin neurons included NSM, ADF, AIM, RIH, HSN class members. All animals were evaluated within 10 minutes of azide treatment. In cases where the worm strains were too defective in egg laying to reach day 3 or 5 adult stage, animals were treated at L4-larval stage onward with the sterilization drug 5-fluoro-2′-deoxyuridne (0.12 mM final) (Sigma). […] The percentage of VC4 and VC5 neurons that succumbed to APP-induced degeneration was compared for different groups (strain, age, drug condition) using planned non-parametric X^2 analyses.
Drugs were freshly prepared in buffer (M9) solution and pipetted onto small seeded plates. These plates were allowed to dry at least 2 hours at RT before use. The final drug concentrations of solid media are: Dimebon, 50 μM (Tocris); P7C3, 50 μM. Well-fed larval stage 4 animals were picked onto seeded plates with or without drug. Animals were then allowed to age at 20° C. for ˜20 (day 1 adult), ˜68 (day 3 adult) and ˜116 hours (day 5 adult) before analysis. Controls using buffer with no drug were performed on each strain for each assay, and each assay was repeated multiple (3-8) times. Data were then averaged and statistically compared with planned non-parametric X2 analyses (Zar, 1999).

The test system of assay [1] is egg-laying and swimming behaviors. Put plainly: Egg-retention assay and swimming kinematics (behaviors that depend on VC4&5 neurons). Conditions: for egg-laying and swimming behaviors, SC_APPC59 strain (in words): data not shown; for behavioral deficits (swimming and egg laying) with age (in words): drug-treated SC_APP:mCh or SC_apl-1:mCh individuals. Type of assay: in vivo, C. elegans. On the procedure: Plates of non-starved adult worms were bleached to yield a synchronized population of eggs. Eggs were allowed to develop for ˜55 hours (day 1 adult) and ˜103 (day 3 adult) hours at 20° C. Animals were then individually dissolved in 1N NaOH, and eggs retained within the dissolved adult animal were counted.
Worms were submerged in NGM liquid and recorded for 1 minute following a 2-minute acclimation period. Spine analysis software was then used to calculate and plot the midbody angle of the worm as described in Pierce-Shimomura J T, Chen B L, Mun J J, Ho R, Sarkis R, McIntire S L. 2008. Genetic analysis of crawling and swimming locomotory patterns in C. elegans. Proc Natl Acad Sci USA. 105: 20982-7, incorporated by reference. Head-bend frequency was determined based on the average time it took an animal to make 20 complete-cycle head bends.

Assay [2] has as its system adult-born neurons in the hippocampus. The following applies: earlier reports; cited from earlier work.
Where [3] appears, read: SC_huAPP695 strain, adult day 1.
Where [4] appears, read: SC_huAPP695 strain, adult day 3.
Where [5] appears, read: SC_huAPP695 strain, adult day 5.

Turning to `CN1CCN2c3ncccc3Cc3ccccc3C2C1` (stereo not shown) [Mirtazapine], the “APP-induced degeneration of VC4 and VC5 (in words)” value (from here on “APP-induced degeneration”) in the assay on neurons VC4 and VC5 was “prevent APP-induced degeneration”.
In the case of `OC(CNc1ccccc1)Cn1c2ccc(Br)cc2c2cc(Br)ccc21` (stereo not shown) [P7C3], in the assay with VC4 and VC5 neurons, the “neurodegeneration induced by APP or apl-1 (in words)” value is recorded as “significantly prevented neurodegeneration”; the “degeneration with gain-of-function mutation in egl-1 (in words)” value was “failed to prevent degeneration”; the “degeneration of VC4&5, SC_APPC59 strain (in words)” value was “prevented degeneration”; the “degeneration of VC4&5, SC_APPN636 strain (in words)” value is on record as “failed to provide protection”. In addition, the “degeneration in egl-1 (null) mutant background (in words)” value with VC4 and VC5 neurons is on record as “no further protection from degeneration”. For the same compound, the “relative potency in dose response analysis” value in the assay on VC4 and VC5 neurons (prevention of VC4&5 degeneration, FIG. 25B) is “two-orders of magnitude more potent than Dimebon”. Also, in assay [1], the “egg-laying and swimming behaviors, SC_APPC59 strain (in words)” value is “protection of egg-laying and swimming behaviors”; the “behavioral deficits (swimming and egg laying) with age (in words)” value is “without behavioral deficits”. In assay [2], the “adult-born hippocampal neurons (in words)” value was “increase the number of adult-born neurons in the hippocampus of mice”.
In the case of `Cc1ccc2c(c1)c1c(n2CCc2ccc(C)nc2)CCN(C)C1` [Dimebon], the “APP-induced degeneration” value in the assay on neurons VC4 and VC5 is listed as “prevents APP-induced neurodegeneration”. Also, in the assay on neurons VC4 and VC5 (SC_apl-1 strain, adult day 1), the “% degen” value was 8.97% and the “Day 1 (degenerated of counted)” value was 14 of 156. Also, in the assay on neurons VC4 and VC5 (SC_apl-1 strain, adult day 3), the “% degen” value is on record as 15.88% and the “Day 3 (degenerated of counted)” value was 27 of 170. Further, in the assay with neurons VC4 and VC5 (SC_apl-1 strain, adult day 5), the “% degen” value was determined as 17.64% and the “Day 5 (degenerated of counted)” value was 12 of 68. Also, in the assay on neurons VC4 and VC5 (setting [3]), the “% degen” value is listed as 10.66% and the “Day 1 (degenerated of counted)” value is 13 of 122. For the same compound, in the assay with neurons VC4 and VC5 (setting [4]), the “% degen” value was 15.45% and the “Day 3 (degenerated of counted)” value is reported as 17 of 110. In the assay with neurons VC4 and VC5 (setting [5]), the “% degen” value was determined as 16.67% and the “Day 5 (degenerated of counted)” value is 13 of 78. Moreover, in the assay on neurons VC4 and VC5 (Wild-type strain, adult day 1), the “% degen” value was 4.63% and the “Day 1 (degenerated of counted)” value is reported as 5 of 108. Further, in the assay with neurons VC4 and VC5 (Wild-type strain, adult day 3), the “% degen” value was 6.45% and the “Day 3 (degenerated of counted)” value is 8 of 124. Further, in the assay on neurons VC4 and VC5 (Wild-type strain, adult day 5), the “% degen” value was 12.93% and the “Day 5 (degenerated of counted)” value is recorded as 15 of 116. Also, in the assay on VC4 and VC5 neurons, the “neurodegeneration induced by APP or apl-1 (in words)” value is “prevented neurodegeneration”; the “degeneration with gain-of-function mutation in egl-1 (in words)” value is recorded as “failed to prevent degeneration”; the “degeneration of VC4&5, SC_APPC59 strain (in words)” value was “prevented degeneration”; the “degeneration of VC4&5, SC_APPN636 strain (in words)” value is on record as “failed to provide protection”. Also, the “degeneration in egl-1 (null) mutant background (in words)” value in the assay with VC4 and VC5 neurons is given as “no further protection from degeneration”. Besides, in assay [1], the “egg-laying and swimming behaviors, SC_APPC59 strain (in words)” value is “protection of egg-laying and swimming behaviors”; the “behavioral deficits (swimming and egg laying) with age (in words)” value is recorded as “without behavioral deficits”. Moreover, in assay [2], the “adult-born hippocampal neurons (in words)” value is recorded as “promote the survival (prevent death) of adult-born hippocampal neurons”.
In the case of `CN1CCN2c3ccccc3Cc3ccccc3C2C1` (stereo not shown) [Mianserin], the “APP-induced degeneration” value with neurons VC4 and VC5 is recorded as “prevent APP-induced degeneration”.
As to `O=c1[nH]c(=O)n([C@H]2C[C@H](O)[C@@H](CO)O2)cc1F` [5-fluoro-2′-deoxyuridne], the “effect on progression of degeneration of VC neurons (in words)” value in the assay on VC4 and VC5 neurons (0.12 mM final, from L4-larval stage onward (sterilization drug)) is given as “no effect on the progression of degeneration of VC neurons”. Further, the “swimming defect of single-copy APP or apl-1 strains after sterilization (in words)” value in assay [1] (0.12 mM final, swimming kinematics) is “displayed the same defect”.
